32 compounds from PubChem BioAssay AID651792 (The Scripps Research Institute Molecular Screening Center, 2012) can be followed below.

Calls of active or inactive are those of the source. No rule for the calls is given here.

For the experiment, the system named is FXN GAA850 promoter luciferase reporter, luminescence. Description: expanded-repeat frataxin promoter luciferase activation – cell-based, luminescence, GAA850 repeat, dose response (AID 651792).

Regarding `COc1ccccc1NC(=O)c1cnc(SCC(=O)NCC2CCCO2)n(C)c1=O` (configuration not stated), the EC50 (as a rule, the concentration needed to bring the measured effect to its halfway point) was > 59.6 µM (inactive). Under `Cn1c(SCC(=O)NCC2CCCO2)ncc(C(=O)Nc2ccc(Cl)cc2)c1=O` (configuration not stated) stands > 59.6 µM (inactive); under `Fc1ccc2nc(Nc3nnc(-c4ccccc4Cl)o3)sc2c1`, > 59.6 µM (inactive); under `Clc1ccccc1-c1nnc(Nc2nc3cc4c(cc3s2)OCO4)o1`, > 59.6 µM (inactive).

`COc1ccc(-c2nnc(Nc3nc4ccc(SC)cc4s3)o2)c(OC)c1`: the EC50 was > 59.6 µM (inactive). Regarding `Cn1c(SCC(=O)NCC2CCCO2)ncc(C(=O)Nc2ccccc2)c1=O` (configuration not stated), the EC50 was > 59.6 µM (inactive). Take `Clc1ccc(-c2nnc(Nc3nc4cc5c(cc4s3)OCO5)o2)cc1`: the EC50 was > 59.6 µM (inactive).

Regarding `COc1cccc2sc(Nc3nnc(-c4ccccc4Cl)o3)nc12`, the EC50 was > 59.6 µM (inactive). Regarding `COc1cccc2sc(Nc3nnc(-c4ccc(F)cc4)o3)nc12`, the EC50 was > 59.6 µM (inactive). Under `COc1ccccc1NC(=O)c1cnc(SCC(=O)NCc2ccc3c(c2)OCO3)n(C)c1=O` stands > 59.6 µM (inactive); under `COc1ccccc1NC(=O)c1cnc(SCC(=O)Nc2ccc3c(c2)OCO3)n(C)c1=O`, > 59.6 µM (inactive).

In the case of `COc1ccccc1CNC(=O)CSc1ncc(C(=O)Nc2ccccc2)c(=O)n1C`, the EC50 was > 59.6 µM (inactive). In the case of `Cc1ccc(NC(=O)c2cnc(SCC(=O)Nc3cccc(C(F)(F)F)c3)n(C)c2=O)cc1C`, the EC50 was > 59.6 µM (inactive).

Take `CSc1ccc2nc(Nc3nnc(-c4ccccc4Cl)o3)sc2c1`: the EC50 is > 59.6 µM (inactive).

For `COc1ccc(-c2nnc(Nc3nc4ccc(OC)cc4s3)o2)c(OC)c1`, the EC50 is > 59.6 µM (inactive). Turning to `CSc1ccc2nc(Nc3nnc(-c4ccc5c(c4)OCCO5)o3)sc2c1`, the EC50 was > 59.6 µM (inactive). Under `Fc1ccc(-c2nnc(Nc3nc4c(F)cccc4s3)o2)cc1` stands > 59.6 µM (inactive); under `COc1ccccc1NC(=O)c1cnc(SCC(=O)NCCc2ccccc2)n(C)c1=O`, > 59.6 µM (inactive). For `COc1ccc(-c2nnc(Nc3nc4c(F)cccc4s3)o2)c(OC)c1`, the EC50 is > 59.6 µM (inactive). The result for `Fc1cccc2sc(Nc3nnc(-c4ccccc4Cl)o3)nc12` reads > 59.6 µM (inactive); that for `COc1ccccc1-c1nnc(Nc2nc3ccc(F)cc3s2)o1`, > 59.6 µM (inactive); that for `CCc1nnc(NC(=O)CSc2ncc(C(=O)Nc3ccc(C)c(C)c3)c(=O)n2C)s1`, > 59.6 µM (inactive).

Consider `COc1ccc(-c2nnc(Nc3nc4ccc(F)cc4s3)o2)c(OC)c1`, for which the EC50 is > 59.6 µM (inactive). Under `Cn1c(SCC(=O)NCC2CCCO2)ncc(C(=O)Nc2ccc(F)cc2)c1=O` (configuration not stated) stands > 59.6 µM (inactive); under `COc1ccc(-c2nnc(Nc3nc4cc(OC)ccc4s3)o2)c(OC)c1`, > 59.6 µM (inactive); under `COc1ccccc1-c1nnc(Nc2nc3c(OC)cccc3s2)o1`, > 59.6 µM (inactive). In the case of `COc1ccc(-c2nnc(Nc3nc4c(OC)cccc4s3)o2)cc1`, the EC50 was > 59.6 µM (inactive).

For the compound `COc1cccc2sc(Nc3nnc(-c4ccccc4)o3)nc12`, the EC50 was > 59.6 µM (inactive). For `COc1ccccc1NC(=O)c1cnc(SCC(=O)Nc2cc(C)on2)n(C)c1=O`, the EC50 was > 59.6 µM (inactive). The result for `COc1ccccc1NC(=O)c1cnc(SCC(=O)NCc2ccccc2)n(C)c1=O` reads > 59.6 µM (inactive).

As to `COc1ccccc1NC(=O)c1cnc(SCC(=O)Nc2nc3ccccc3s2)n(C)c1=O`, the EC50 is > 59.6 µM (inactive). Under `COc1ccc(-c2nnc(Nc3nc4c(OC)cccc4s3)o2)c(OC)c1` stands > 59.6 µM (inactive).
